Laboratory results taken from the NIST ThermoML archive (doi:10.1016/j.jct.2018.09.031).

Details: 101.33 kPa, Liquid; for kinematic viscosity: Capillary tube (Ostwald / Ubbelohde) method; for mass density: Pycnometric method

OCCO [1,2-ethanediol]
Details	kinematic viscosity [m2/s]	mass density [kg/m3]
273.15 K	5.1e-05	1127.43
283.15 K	2.96e-05	1120.35
293.15 K	1.92e-05	1113.25
303.15 K	1.28e-05	1106.26
313.15 K	8.8e-06	1099.2
323.15 K	6.22e-06	1092.07
333.15 K	4.6e-06	1084.84
